{
  "source": "patent US20240239775A1",
  "about": "“FXR REGULATOR, PREPARATION METHOD THEREFOR, PHARMACEUTICAL COMPOSITION THEREOF AND USE THEREOF” (QINGDAO RUIJI MEDICAL TECHNOLOGY CO., LTD., priority 2021, published 2024)",
  "data": [
    {"target": "T1, FXR (Homo sapiens, UniProt Q96RI1)", "T1 construct": "5 μL of 20 nM FXR-LBD Complete Coregulator buffer G; purchased ThermoFisher PV4833", "T1 sequence (Q96RI1 262-486 limits assumed)": "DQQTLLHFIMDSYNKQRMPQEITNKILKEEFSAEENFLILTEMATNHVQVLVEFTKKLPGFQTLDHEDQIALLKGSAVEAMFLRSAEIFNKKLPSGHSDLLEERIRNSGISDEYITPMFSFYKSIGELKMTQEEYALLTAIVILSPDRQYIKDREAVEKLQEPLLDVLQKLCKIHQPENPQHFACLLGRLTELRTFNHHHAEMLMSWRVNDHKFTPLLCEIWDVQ", "assay": "FXR antagonist screening by TR-FRET (LanthaScreen TR-FRET FXR co-activation assay kit)", "type": "biochemical", "settings": "Table 1.1, FXR antagonistic activity; TR-FRET with CDCA; geometric means of at least two independent runs", "procedure,_shortened": "(§1)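 FXR-LBD (20 nM working solution) mixed with compound, CDCA (200 μM working solution) as agonist, Fluorescein-SRC2-2 and Tb-anti-GST antibody in Coregulator buffer G; 10 h at room temperature. Coactivator recruitment read by TR-FRET, triplicate wells.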", "units": {"IC50": "µM"}, "values": [
      {"smiles": "CCOC(=O)c1oc2ccc(S(=O)(=O)N(CCc3ccccc3)Cc3ccccc3F)cc2c1C", "note": "[Example M4-14, ethyl 3-methyl-5-(N-(2-fluorobenzyl)-N-phenethylsulfamoyl)benzofuran-2-carboxylate]", "IC50": "50 to 100"},
      {"smiles": "CCOC(=O)c1oc2ccc(S(=O)(=O)N(CCc3ccccc3)Cc3ccccc3Cl)cc2c1C", "note": "[Example M4-15, ethyl 3-methyl-5-(N-(2-chlorobenzyl)-N-phenethylsulfamoyl)benzofuran-2-carboxylate]", "IC50": "50 to 100"},
      {"smiles": "CCOC(=O)c1oc2ccc(S(=O)(=O)N(CCc3ccccc3)Cc3ccccc3Br)cc2c1C", "note": "[Example M4-16, ethyl 3-methyl-5-(N-(2-bromobenzyl)-N-phenethylsulfamoyl)benzofuran-2-carboxylate]", "IC50": "50 to 100"},
      {"smiles": "CCOC(=O)c1oc2ccc(S(=O)(=O)N(CCc3ccccc3)Cc3ccccc3C)cc2c1C", "note": "[Example M4-17, ethyl 3-methyl-5-(N-(2-methylbenzyl)-N-phenethylsulfamoyl)benzofuran-2-carboxylate]", "IC50": "50 to 100"},
      {"smiles": "CCOC(=O)c1oc2ccc(S(=O)(=O)N(CCc3ccccc3)Cc3ccccc3C(F)(F)F)cc2c1C", "note": "[Example M4-18, ethyl 3-methyl-5-(N-(2-trifluoromethylbenzyl)-N-phenethylsulfamoyl)benzofuran-2-carboxylate]", "IC50": "50 to 100"},
      {"smiles": "CCOC(=O)c1oc2ccc(S(=O)(=O)N(CCc3ccccc3)Cc3ccccc3[N+](=O)[O-])cc2c1C", "note": "[Example M4-19, ethyl 3-methyl-5-(N-(2-nitrobenzyl)-N-phenethylsulfamoyl)benzofuran-2-carboxylate]", "IC50": "50 to 100"},
      {"smiles": "CCOC(=O)c1oc2ccc(S(=O)(=O)N(CCc3ccccc3)Cc3cccc(F)c3)cc2c1C", "note": "[Example M4-20, ethyl 3-methyl-5-(N-(3-fluorobenzyl)-N-phenethylsulfamoyl)benzofuran-2-carboxylate]", "IC50": "50 to 100"},
      {"smiles": "CCOC(=O)c1oc2ccc(S(=O)(=O)N(CCc3ccccc3)Cc3cccc(Cl)c3)cc2c1C", "note": "[Example M4-21, ethyl 3-methyl-5-(N-(3-chlorobenzyl)-N-phenethylsulfamoyl)benzofuran-2-carboxylate]", "IC50": "50 to 100"},
      {"smiles": "CCOC(=O)c1oc2ccc(S(=O)(=O)N(CCc3ccccc3)Cc3cccc(Br)c3)cc2c1C", "note": "[Example M4-22, ethyl 3-methyl-5-(N-(3-bromobenzyl)-N-phenethylsulfamoyl)benzofuran-2-carboxylate]", "IC50": "50 to 100"},
      {"smiles": "CCOC(=O)c1oc2ccc(S(=O)(=O)N(CCc3ccccc3)Cc3cccc(C)c3)cc2c1C", "note": "[Example M4-23, ethyl 3-methyl-5-(N-(3-methylbenzyl)-N-phenethylsulfamoyl)benzofuran-2-carboxylate]", "IC50": "50 to 100"},
      {"smiles": "CCOC(=O)c1oc2ccc(S(=O)(=O)N(CCc3ccccc3)Cc3cccc(C(F)(F)F)c3)cc2c1C", "note": "[Example M4-24, ethyl 3-methyl-5-(N-(3-trifluoromethylbenzyl)-N-phenethylsulfamoyl)benzofuran-2-carboxylate]", "IC50": "50 to 100"},
      {"smiles": "CCOC(=O)c1oc2ccc(S(=O)(=O)N(CCc3ccccc3)Cc3cccc([N+](=O)[O-])c3)cc2c1C", "note": "[Example M4-25, ethyl 3-methyl-5-(N-(3-nitrobenzyl)-N-phenethylsulfamoyl)benzofuran-2-carboxylate]", "IC50": "50 to 100"},
      {"smiles": "CCOC(=O)c1oc2ccc(S(=O)(=O)N(CCc3ccccc3)Cc3cccc(-c4ccccc4)c3)cc2c1C", "note": "[Example M4-26, ethyl 3-methyl-5-(N-([1,1′-biphenyl]-3-ylmethyl)-N-phenethylsulfamoyl)benzofuran-2-carboxylate]", "IC50": "50 to 100"},
      {"smiles": "CCOC(=O)c1oc2ccc(S(=O)(=O)N(CCc3ccccc3)Cc3cccc(Oc4ccccc4)c3)cc2c1C", "note": "[Example M4-27]", "IC50": "50 to 100"},
      {"smiles": "CCOC(=O)c1oc2ccc(S(=O)(=O)N(CCc3ccccc3)Cc3ccc(F)cc3)cc2c1C", "note": "[Example M4-28, ethyl 3-methyl-5-(N-(4-fluorobenzyl)-N-phenethylsulfamoyl)benzofuran-2-carboxylate]", "IC50": "50 to 100"},
      {"smiles": "CCOC(=O)c1oc2ccc(S(=O)(=O)N(CCc3ccccc3)Cc3ccc(Cl)cc3)cc2c1C", "note": "[Example M4-29, ethyl 3-methyl-5-(N-(4-chlorobenzyl)-N-phenethylsulfamoyl)benzofuran-2-carboxylate]", "IC50": "50 to 100"},
      {"smiles": "CCOC(=O)c1oc2ccc(S(=O)(=O)N(CCc3ccccc3)Cc3ccc(Br)cc3)cc2c1C", "note": "[Example M4-30, ethyl 3-methyl-5-(N-(4-bromobenzyl)-N-phenethylsulfamoyl)benzofuran-2-carboxylate]", "IC50": "50 to 100"},
      {"smiles": "CCOC(=O)c1oc2ccc(S(=O)(=O)N(CCc3ccccc3)Cc3ccc(C)cc3)cc2c1C", "note": "[Example M4-31, ethyl 3-methyl-5-(N-(4-methylbenzyl)-N-phenethylsulfamoyl)benzofuran-2-carboxylate]", "IC50": "50 to 100"},
      {"smiles": "CCOC(=O)c1oc2ccc(S(=O)(=O)N(CCc3ccccc3)Cc3ccc(C(F)(F)F)cc3)cc2c1C", "note": "[Example M4-32, ethyl 3-methyl-5-(N-(4-trifluoromethylbenzyl)-N-phenethylsulfamoyl)benzofuran-2-carboxylate]", "IC50": "50 to 100"},
      {"smiles": "CCOC(=O)c1oc2ccc(S(=O)(=O)N(CCc3ccccc3)Cc3ccc(C#N)cc3)cc2c1C", "note": "[Example M4-33, ethyl 3-methyl-5-(N-(4-cyanobenzyl)-N-phenethylsulfamoyl)benzofuran-2-carboxylate]", "IC50": "50 to 100"},
      {"smiles": "CCOC(=O)c1oc2ccc(S(=O)(=O)N(CCc3ccccc3)Cc3ccc(OC(F)(F)F)cc3)cc2c1C", "note": "[Example M4-34, ethyl 3-methyl-5-(N-(4-(trifluoromethoxy)benzyl)-N-phenethylsulfamoyl)benzofuran-2-carboxylate]", "IC50": "50 to 100"},
      {"smiles": "CCOC(=O)c1oc2ccc(S(=O)(=O)N(CCc3ccccc3)Cc3ccc(SC(F)(F)F)cc3)cc2c1C", "note": "[Example M4-35, ethyl 3-methyl-5-(N-(4-(trifluoromethylthio)benzyl)-N-phenethylsulfamoyl)benzofuran-2-carboxylate]", "IC50": "50 to 100"},
      {"smiles": "CCOC(=O)c1oc2ccc(S(=O)(=O)N(CCc3ccccc3)Cc3ccc(C(C)C)cc3)cc2c1C", "note": "[Example M4-36, ethyl 3-methyl-5-(N-(4-isopropylbenzyl)-N-phenethylsulfamoyl)benzofuran-2-carboxylate]", "IC50": "50 to 100"}
    ]},
    {"target": "T1, FXR", "assay": "FXR antagonist screening by TR-FRET (LanthaScreen TR-FRET FXR co-activation assay kit)", "type": "biochemical", "settings": "Table 1.2, FXR antagonistic activity; TR-FRET with CDCA; geometric means of at least two independent runs", "procedure,_shortened": "as §1", "units": {"IC50": "µM"}, "values": [
      {"smiles": "Cc1c(C(=O)O)sc2ccc(S(=O)(=O)N(CCCc3ccccc3)c3ccccc3N3CCN(C(=O)c4sccc4Br)CC3)cc12", "note": "[Example F27-S176, 5-(N-(2-(4-(3-bromothiophene-2-carbonyl)piperazin-1-yl)phenyl)-N-(3-phenylpropyl)sulfamoyl)-3-methylbenzothiophene-2-carboxylic acid]", "IC50": "0.1 to 10"},
      {"smiles": "Cc1c(C(=O)O)sc2ccc(S(=O)(=O)Nc3ccccc3N3CCN(C(=O)c4sccc4Br)CC3)cc12", "note": "[Example F27-S177, 5-(N-(2-(4-(3-bromothiophene-2-carbonyl)piperazin-1-yl)phenyl)sulfamoyl)-3-toluothiophene-2-carboxylic acid]", "IC50": "0.1 to 10"},
      {"smiles": "Cc1c(C(N)=O)oc2ccc(S(=O)(=O)N(CCc3ccccc3)c3ccccc3N3CCN(C(=O)c4sccc4Br)CC3)cc12", "note": "[Example F27-S178, 5-(N-(2-(4-(3-bromothiophene-2-formyl)piperazin-1-yl)phenyl)-N-phenethylsulfamoyl)3-methylbenzofuran-2-carboxamide]", "IC50": "0.1 to 10"},
      {"smiles": "Cc1c(C(=O)O)n(C)c2ccc(S(=O)(=O)N(CCc3ccccc3)c3ccccc3N3CCN(C(=O)c4sccc4Br)CC3)cc12", "note": "[Example F27-S179, 5-(N-(2-(4-(3-bromothiophene-2-carbonyl)piperazin-1-yl)phenyl)-N-phenethylsulfamoyl)-1,3-dimethyl-1H-indole-2-carboxylic acid]", "IC50": "0.1 to 10"},
      {"smiles": "Cc1c(C(=O)O)sc2ccc(S(=O)(=O)N(CCC3CCCCC3)c3ccccc3N3CCN(C(=O)c4sccc4Br)CC3)cc12", "note": "[Example F27-S180, 5-(N-(2-(4-(3-bromothiophene-2-carbonyl)piperazin-1-yl)phenyl)-N-(2-cyclohexylethyl)sulfamoyl)-3-methylbenzothiophene-2-carboxylic acid]", "IC50": "0.1 to 10"},
      {"smiles": "Cc1c(C(=O)O)sc2ccc(S(=O)(=O)N(Cc3ccccc3)c3ccccc3N3CCN(C(=O)c4sccc4Br)CC3)cc12", "note": "[Example F27-S181, 5-(N-benzyl-N-(2-(4-(3-bromothiophene-2-carbonyl)piperazin-1-yl)phenyl)sulfamoyl)-3-methylbenzothiophene-2-carboxylic acid]", "IC50": "0.1 to 10"},
      {"smiles": "Cc1c(C(=O)O)sc2ccc(S(=O)(=O)N(C)c3ccccc3N3CCN(C(=O)c4sccc4Br)CC3)cc12", "note": "[Example F27-S182, 5-(N-(2-(4-(3-bromothiophene-2-carbonyl)piperazin-1-yl)phenyl)-N-methylsulfamoyl)-3-methylbenzothiophene-2-carboxylic acid]", "IC50": "0.1 to 10"},
      {"smiles": "Cc1c(C(=O)O)sc2ccc(S(=O)(=O)N(CCc3cccs3)c3ccccc3N3CCN(C(=O)c4sccc4Br)CC3)cc12", "note": "[Example F27-S183, 5-(N-(2-(4-(3-bromothiophene-2-carbonyl)piperazin-1-yl)phenyl)-N-(2-(thiophen-2-yl)ethyl)sulfamoyl)-3-methylbenzothiophene-2-carboxylic acid]", "IC50": "0.1 to 10"},
      {"smiles": "Cc1c(CO)oc2ccc(S(=O)(=O)N(CCc3ccccc3)c3ccccc3N3CCN(C(=O)c4sccc4Br)CC3)cc12", "note": "[Example F27-S184, N-(2-(4-(3-bromothiophene-2-formyl)piperazin-1-yl)phenyl)-2-hydroxymethyl-3-methyl-N-phenethylbenzofuran-5-sulfonamide]", "IC50": "0.1 to 10"}
    ]}
  ]
}
